Results taken from PubChem BioAssay (NCI).
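Assay format: 96-well plates, 48-hour exposure. GI50 = concentration required for 50% inhibition of growth. At the TGI there is no net growth.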

Key:
Assay in all cases: NCI anticancer screen, dose series, 48 h
SF-268 CNS = test system: SF-268 CNS
NCI-H460 lung = test system: NCI-H460 lung
KM12 colon = test system: KM12 colon
OVCAR-4 ovarian = test system: OVCAR-4 ovarian
MDA-MB-231 breast = test system: MDA-MB-231 breast
SK-MEL-5 melanoma = test system: SK-MEL-5 melanoma
NCI-H226 lung = test system: NCI-H226 lung
UO-31 renal = test system: UO-31 renal
HS 578T breast = test system: HS 578T breast
MCF7 breast = test system: MCF7 breast
HCT-15 colon = test system: HCT-15 colon
M14 melanoma = test system: M14 melanoma
HL-60(TB) leukemia = test system: HL-60(TB) leukemia
SR leukemia = test system: SR leukemia
HOP-92 NSCLC = test system: HOP-92 NSCLC
HCT-116 colon = test system: HCT-116 colon
SNB-19 CNS = test system: SNB-19 CNS
RPMI-8226 leukemia = test system: RPMI-8226 leukemia
OVCAR-5 ovarian = test system: OVCAR-5 ovarian
CCRF-CEM leukemia = test system: CCRF-CEM leukemia
SN12C renal = test system: SN12C renal
U251 CNS = test system: U251 CNS
MDA-MB-435 = test system: MDA-MB-435
NCI-H522 lung = test system: NCI-H522 lung
SW-620 colon = test system: SW-620 colon
ACHN renal = test system: ACHN renal
RXF 393 renal = test system: RXF 393 renal
NCI-H23 lung = test system: NCI-H23 lung
TK-10 renal = test system: TK-10 renal
A498 renal = test system: A498 renal
NCI/ADR-RES ovarian = test system: NCI/ADR-RES ovarian
OVCAR-8 ovarian = test system: OVCAR-8 ovarian
SF-295 CNS = test system: SF-295 CNS
OVCAR-3 ovarian = test system: OVCAR-3 ovarian
T-47D breast = test system: T-47D breast
HOP-62 NSCLC = test system: HOP-62 NSCLC
HCC-2998 colon = test system: HCC-2998 colon
LOX IMVI melanoma = test system: LOX IMVI melanoma
SF-539 CNS = test system: SF-539 CNS
SK-MEL-28 melanoma = test system: SK-MEL-28 melanoma
UACC-257 melanoma = test system: UACC-257 melanoma
DU-145 prostate = test system: DU-145 prostate
BT-549 breast = test system: BT-549 breast
A549 NSCLC = test system: A549 NSCLC
SNB-75 CNS = test system: SNB-75 CNS
PC-3 prostate = test system: PC-3 prostate
786-0 renal = test system: 786-0 renal
SK-OV-3 ovarian = test system: SK-OV-3 ovarian
MOLT-4 leukemia = test system: MOLT-4 leukemia
COLO 205 colon = test system: COLO 205 colon
CAKI-1 renal = test system: CAKI-1 renal
IGROV1 ovarian = test system: IGROV1 ovarian
UACC-62 melanoma = test system: UACC-62 melanoma
SK-MEL-2 melanoma = test system: SK-MEL-2 melanoma

Compound `Oc1ccc(Cl)cc1-c1cc(-c2ccc(Cl)cc2)n[nH]1` has a GI50 (SF-268 CNS) of 2.64 µM, a TGI (SF-268 CNS) of 15.1 µM and a GI50 (NCI-H460 lung) of 2.03 µM. The TGI (NCI-H460 lung) was 8.15 µM, the GI50 (KM12 colon) was 1.69 µM and the TGI (KM12 colon) was 6.21 µM. It also gave a GI50 (OVCAR-4 ovarian) of 0.322 µM, a TGI (OVCAR-4 ovarian) of 5.7 µM and a GI50 (MDA-MB-231 breast) of 0.624 µM. For the same compound, the TGI (MDA-MB-231 breast) was 6.79 µM, the GI50 (SK-MEL-5 melanoma) was 1.35 µM and the TGI (SK-MEL-5 melanoma) was 10.2 µM. It also gave a GI50 (NCI-H226 lung) of 2.87 µM, a TGI (NCI-H226 lung) of 24.1 µM and a GI50 (UO-31 renal) of 1.38 µM. For the same compound, the TGI (UO-31 renal) was 10.1 µM, the GI50 (HS 578T breast) was 4.13 µM and the TGI (HS 578T breast) was 31.6 µM. It also gave a GI50 (MCF7 breast) of 0.551 µM, a TGI (MCF7 breast) of 5.25 µM and a GI50 (HCT-15 colon) of 0.349 µM. The TGI (HCT-15 colon) was 6.31 µM, the GI50 (M14 melanoma) was 2.72 µM and the TGI (M14 melanoma) was 11.6 µM. The GI50 (HL-60(TB) leukemia) was 1.81 µM, the TGI (HL-60(TB) leukemia) was 15.8 µM and the GI50 (SR leukemia) was 0.577 µM. For the same compound, the TGI (SR leukemia) was 12.3 µM, the GI50 (HOP-92 NSCLC) was 1.18 µM and the TGI (HOP-92 NSCLC) was 4.6 µM. For the same compound, the GI50 (HCT-116 colon) was 1.57 µM, the TGI (HCT-116 colon) was 2.99 µM and the GI50 (SNB-19 CNS) was 2.59 µM. The TGI (SNB-19 CNS) was 12.1 µM, the GI50 (RPMI-8226 leukemia) was 2.11 µM and the TGI (RPMI-8226 leukemia) was 7.39 µM. It also gave a GI50 (OVCAR-5 ovarian) of 9.55 µM, a TGI (OVCAR-5 ovarian) of 36.5 µM and a GI50 (CCRF-CEM leukemia) of 1.45 µM. The TGI (CCRF-CEM leukemia) was 14.5 µM, the GI50 (SN12C renal) was 3.13 µM and the TGI (SN12C renal) was 15.5 µM. For the same compound, the GI50 (U251 CNS) was 3.2 µM, the TGI (U251 CNS) was 11.3 µM and the GI50 (MDA-MB-435) was 3.14 µM. For the same compound, the TGI (MDA-MB-435) was 14.2 µM, the GI50 (NCI-H522 lung) was 3.26 µM and the TGI (NCI-H522 lung) was 12.9 µM. For the same compound, the GI50 (SW-620 colon) was 2.54 µM, the TGI (SW-620 colon) was 11.1 µM and the GI50 (ACHN renal) was 2.45 µM. For the same compound, the TGI (ACHN renal) was 9.23 µM, the GI50 (RXF 393 renal) was 6.01 µM and the TGI (RXF 393 renal) was 20.8 µM. It also gave a GI50 (NCI-H23 lung) of 2.03 µM, a TGI (NCI-H23 lung) of 6.26 µM and a GI50 (TK-10 renal) of 3.56 µM. For the same compound, the TGI (TK-10 renal) was 12.4 µM, the GI50 (A498 renal) was 10.9 µM and the TGI (A498 renal) was 23.9 µM. It also gave a GI50 (NCI/ADR-RES ovarian) of 2.67 µM, a TGI (NCI/ADR-RES ovarian) of 7.92 µM and a GI50 (OVCAR-8 ovarian) of 3.47 µM. The TGI (OVCAR-8 ovarian) was 14.1 µM, the GI50 (SF-295 CNS) was 3.01 µM and the TGI (SF-295 CNS) was 12.8 µM. The GI50 (OVCAR-3 ovarian) was 1.53 µM, the TGI (OVCAR-3 ovarian) was 4.59 µM and the GI50 (T-47D breast) was 1.45 µM. It also gave a TGI (T-47D breast) of 7.73 µM, a GI50 (HOP-62 NSCLC) of 1.6 µM and a TGI (HOP-62 NSCLC) of 13.6 µM. For the same compound, the GI50 (HCC-2998 colon) was 1.86 µM, the TGI (HCC-2998 colon) was 11.5 µM and the GI50 (LOX IMVI melanoma) was 2.02 µM. The TGI (LOX IMVI melanoma) was 5.65 µM, the GI50 (SF-539 CNS) was 3.56 µM and the TGI (SF-539 CNS) was 14.7 µM. It also gave a GI50 (SK-MEL-28 melanoma) of 4.46 µM, a TGI (SK-MEL-28 melanoma) of 21.2 µM and a GI50 (UACC-257 melanoma) of 9.92 µM. For the same compound, the TGI (UACC-257 melanoma) was 37.7 µM, the GI50 (DU-145 prostate) was 3.02 µM and the TGI (DU-145 prostate) was 11 µM. For the same compound, the GI50 (BT-549 breast) was 2 µM, the TGI (BT-549 breast) was 9.45 µM and the GI50 (A549 NSCLC) was 2.99 µM. For the same compound, the TGI (A549 NSCLC) was 13.9 µM, the GI50 (SNB-75 CNS) was 1.44 µM and the TGI (SNB-75 CNS) was 10.8 µM. The GI50 (PC-3 prostate) was 1.78 µM, the TGI (PC-3 prostate) was 8.44 µM and the GI50 (786-0 renal) was 2.51 µM. The TGI (786-0 renal) was 7.54 µM, the GI50 (SK-OV-3 ovarian) was 2.21 µM and the TGI (SK-OV-3 ovarian) was 13.8 µM. It also gave a GI50 (MOLT-4 leukemia) of 2.05 µM, a TGI (MOLT-4 leukemia) of 19.5 µM and a GI50 (COLO 205 colon) of 3.73 µM. It also gave a TGI (COLO 205 colon) of 15.3 µM, a GI50 (CAKI-1 renal) of 1.87 µM and a TGI (CAKI-1 renal) of 11.3 µM. The GI50 (IGROV1 ovarian) was 1.9 µM, the TGI (IGROV1 ovarian) was 15.9 µM and the GI50 (UACC-62 melanoma) was 2.49 µM. For the same compound, the TGI (UACC-62 melanoma) was 10.4 µM, the GI50 (SK-MEL-2 melanoma) was 11.3 µM and the TGI (SK-MEL-2 melanoma) was 30.1 µM.
